# Source: PubChem BioAssay AID192 (DTP/NCI, 2004)
# Inconclusive results and toxic doses are left out.
# Test system: BDF1 mice, B16 melanoma ip, median survival T/C
# Assay: NCI In Vivo Anticancer Drug Screen. Data for tumor model B16 Melanoma (intraperitoneal) in B6D2F1 (BDF1) mice
# Details: endpoint: median survival time, higher = longer survival
# How it was run: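 The ratio T/C compares compound-treated mice with vehicle-treated controls, using survival or tumor size as the endpoint in a transplantable tumor model.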
# [1] = dose: 5.0 mg/kg/injection, schedule: Q01DX009 (ip), vehicle: saline
# [2] = dose: 12.5 mg/kg/injection, schedule: Q01DX009 (ip), vehicle: Klucel (hydroxypropylcellulose) (HPC)
# [3] = dose: 25.0 mg/kg/injection, schedule: Q01DX009 (ip), vehicle: Klucel (hydroxypropylcellulose) (HPC)
# [4] = dose: 50.0 mg/kg/injection, schedule: Q01DX009 (ip), vehicle: Klucel (hydroxypropylcellulose) (HPC)
smiles,measurement,setting,value
COC(=O)c1[nH]cnc1/N=N/N(C)C,T/C,"dose: 3.75 mg/kg/injection, schedule: Q01DX009 (ip), vehicle: saline",121 % of control
same,T/C,"dose: 15.0 mg/kg/injection, schedule: Q01DX009 (ip), vehicle: saline",121 % of control
COc1cc2c[n+](C)c3c4cc5c(cc4ccc3c2cc1OC)OCO5 (tested in a mixture with another compound),T/C,"dose: 0.78 mg/kg/injection, schedule: Q01DX009 (ip), vehicle: distilled water + Tween-80",105 % of control
same,T/C,"dose: 1.56 mg/kg/injection, schedule: Q01DX009 (ip), vehicle: distilled water + Tween-80",97 % of control
same,T/C,"dose: 3.13 mg/kg/injection, schedule: Q01DX009 (ip), vehicle: distilled water + Tween-80",118 % of control
same,T/C,[1],116 % of control
same,T/C,"dose: 6.25 mg/kg/injection, schedule: Q01DX009 (ip), vehicle: Klucel (hydroxypropylcellulose) (HPC)",110 % of control
same,T/C,[2],124 % of control
same,T/C,[3],114 % of control
same,T/C,"dose: 40.0 mg/kg/injection, schedule: Q01DX009 (ip), vehicle: saline",159 % of control
same,T/C,[4],92 % of control
same,T/C,"dose: 80.0 mg/kg/injection, schedule: Q01DX009 (ip), vehicle: saline",98 % of control
CC(CCOCC1CO1)OCC1CO1 (centres undefined),T/C,"dose: 100.0 mg/kg/injection, schedule: Q04DX003 (ip), vehicle: saline",100 % of control
same,T/C,"dose: 200.0 mg/kg/injection, schedule: Q04DX003 (ip), vehicle: saline",108 % of control
same,T/C,"dose: 400.0 mg/kg/injection, schedule: Q04DX003 (ip), vehicle: saline",110 % of control
CCCCCCCCCC(=O)CCCC,T/C,"dose: 100.0 mg/kg/injection, schedule: Q01DX009 (ip), vehicle: other",94 % of control
same,T/C,"dose: 200.0 mg/kg/injection, schedule: Q01DX009 (ip), vehicle: other",92 % of control
CC(C)(C)C1CCC(C(=O)O)CC1 (centres undefined),T/C,"dose: 50.0 mg/kg/injection, schedule: Q01DX009 (ip), vehicle: saline with Tween-80",95 % of control
same,T/C,"dose: 100.0 mg/kg/injection, schedule: Q01DX009 (ip), vehicle: saline with Tween-80",90 % of control
same,T/C,"dose: 200.0 mg/kg/injection, schedule: Q01DX009 (ip), vehicle: saline with Tween-80",90 % of control
CC(=O)[C@H]1CC[C@H]2[C@@H]3C[C@H](F)C4=CC(=O)CC[C@]4(C)[C@@]3(F)[C@@H](O)C[C@]12C,T/C,[2],95 % of control
same,T/C,[3],97 % of control
same,T/C,[4],104 % of control
same,T/C,"dose: 100.0 mg/kg/injection, schedule: Q04DX003 (ip), vehicle: saline with Tween-80",102 % of control
same,T/C,"dose: 200.0 mg/kg/injection, schedule: Q04DX003 (ip), vehicle: saline with Tween-80",110 % of control
same,T/C,"dose: 400.0 mg/kg/injection, schedule: Q04DX003 (ip), vehicle: saline with Tween-80",110 % of control
Cc1ccccc1N1C(=O)CSC1=S,T/C,[2],90 % of control
same,T/C,[3],93 % of control
CN1CCN=C1c1ccc(NC(=O)c2ccc(C(=O)Nc3ccc(C4=NCCN4C)cc3)c(N)c2)cc1,T/C,"dose: 1.25 mg/kg/injection, schedule: Q01DX009 (ip), vehicle: saline",115 % of control
same,T/C,"dose: 1.25 mg/kg/injection, schedule: Q04DX003 (ip), vehicle: saline",89 % of control
same,T/C,"dose: 2.5 mg/kg/injection, schedule: Q01DX009 (ip), vehicle: saline",117 % of control
same,T/C,"dose: 2.5 mg/kg/injection, schedule: Q04DX003 (ip), vehicle: saline",94 % of control
same,T/C,[1],115 % of control
same,T/C,"dose: 5.0 mg/kg/injection, schedule: Q04DX003 (ip), vehicle: saline",100 % of control
CCOc1ccccc1NC(=O)COc1ccc(Cl)cc1,T/C,"dose: 100.0 mg/kg/injection, schedule: Q01DX009 (ip), vehicle: Klucel (hydroxypropylcellulose) (HPC)",106 % of control
same,T/C,"dose: 200.0 mg/kg/injection, schedule: Q01DX009 (ip), vehicle: Klucel (hydroxypropylcellulose) (HPC)",96 % of control
same,T/C,"dose: 400.0 mg/kg/injection, schedule: Q01DX009 (ip), vehicle: Klucel (hydroxypropylcellulose) (HPC)",100 % of control
CNNCc1ccc(/C=N/NC(N)=S)cc1,T/C,"dose: 12.5 mg/kg/injection, schedule: Q01DX009 (ip), vehicle: water",105 % of control
same,T/C,"dose: 25.0 mg/kg/injection, schedule: Q01DX009 (ip), vehicle: water",100 % of control
same,T/C,"dose: 50.0 mg/kg/injection, schedule: Q01DX009 (ip), vehicle: water",99 % of control
same,T/C,"dose: 100.0 mg/kg/injection, schedule: Q01DX009 (ip), vehicle: water",97 % of control
CC[C@@H]1C[C@H]2CC3c4[nH]c5ccccc5c4CCN(C2)C31,T/C,"dose: 5.0 mg/kg/injection, schedule: Q01DX009 (ip), vehicle: saline with Tween-80",110 % of control
same,T/C,"dose: 10.0 mg/kg/injection, schedule: Q01DX009 (ip), vehicle: saline with Tween-80",107 % of control
same,T/C,"dose: 20.0 mg/kg/injection, schedule: Q01DX009 (ip), vehicle: saline with Tween-80",97 % of control
